# Like-named read-outs stand apart in the source and are kept apart here.
# Key:
# [1] = tested on: foreign body and immune rejection responses to implanted biomedical devices; details: rodents; cited from earlier work
# [2] = tested on: foreign body and immune rejection responses to implanted biomedical devices; details: non-human primates; cited from earlier work
# [3] = in vitro release under accelerated release conditions; type: physicochemical; details: 37° C., PBS+0.3% SDS, 2.9 mg drug, 12-day time course; amorphous vs 50 μm vs 150-200 μm crystals
# From the text: After crystals visibly stopped precipitating or growing, the vessel was submerged in an ultrasonic water bath for 10-30 seconds to dislodge crystals from the vessel sidewall and break them into more a uniform size distributions, either smaller fines, for example 50 μm, or between 150-200 μm, as measured by brightfield and scanning electron microscopy, shown in FIGS. 2A-2B. Resultant product was then removed from the supernatant mother solution, dried, weighed, and stored for later use. On average, yielded crystal was approximately 40% of the starting powder. Furthermore, methods exist to quantify solubilized material, typically using optics to identify changes in light transmittance, and enabled testing of crystal stability in a range of aqueous solutions. […] To simulate cumulative drug release over time, all 3 mL supernatant volumes were removed and replaced with completely fresh release media at desired times of 1 hr, 4 hr, 6 hr, 8 hr, 10 hr, 1 day, 2 days, 5 days, 7 days, 10 days and 12 days, and 200 μL aliquots were measured in individual wells of a 96-well plate at 266 nm to determine solubilize sorafenib release, as shown in FIG. 2D.
# Release studies were carried out under accelerated conditions in PBS with 0.3% w/v SDS in 1X PBS. […] Drug concentration in samples was measured using a UV-calibrated Tecan infinite M200 PRO. […]
# [4] = SD rats; cited from earlier work
# [5] = body weight of treated tumor-bearing mice; type: in vivo, BALB/c mice; details: daily 25 mg/kg bolus in ~60% DMSO solvent solution
# Description: However, due to the highly hydrophobic nature of sorafenib, its daily 25 mg/kg bolus dosing regimen required regular used of a solvent solution made up of ˜60% of the strong organic solvent dimethylsulfoxide (DMSO). […] In stark contrast, no DMSO was required for delivery of sorafenib crystals, for which instead simply utilized ˜100-200 μl of saline to inject into the desired IP or SC tissue sites.
# Once tumors had reached an average volume of ˜220-250 mm^3, mice were administered either subcutaneously or intraperitoneally with 3 or 10 mg of crystalline sorafenib, diameter ˜150-200 μm, suspended in 200 μL of sterile saline using an 18 g needle. As a control, mice (n=4) were dosed with sorafenib dissolved at a concentration of 4 mg/mL in a solution of 65% DMSO (remainder DPBS). Mice were dosed either subcutaneously or intraperitoneally with a bolus of 25 mg drug per kg of bodyweight (BW), daily. As a secondary control, mice were dosed with the 65% DMSO/PBS vehicle to monitor changes in body score based on the vehicle alone.
# 4T1 tumors = experiment: orthotopic parent 4T1 TNBC tumor growth; type: in vivo, BALB/c mice; details: daily IP bolus 25 mg/kg BW/day, dissolved in ~60% DMSO
# Description: Namely, 4T1 tumors were treated with either PBS (PBS CONTROL), intraperitoneal (IP) bolus sorafenib (25 mg/kg BW/day) (IP BOLUS), 3 mg IP injected sorafenib crystals (IP CRYSTAL 3 MG), or sorafenib crystals (3 mg: SC CRYSTAL (3 MG); 10 mg: SC CRYSTAL (10 MG)) injected around developed tumors in the subcutaneous (SC) mammary fatpad. Furthermore, to truly test the utility of crystalline sorafenib in treating such an aggressive TNBC model, treatment was carried out retrospectively and only started once tumor volumes reached ˜225-250 mm^3. A positive control liquid-dissolved and daily injected drug treatment group was included, where mice were dosed with a daily bolus of 25 mg sorafenib/kg of mouse BW. […] This may be supported by our prior observation that in the IP compartment, where there is higher 10 liquid turnover as compared to the SC space, crystalline drugs usually have a faster kinetic of release over time.
# 4T1 or 4T1-luc2 cells were trypsinized using 0.25% Trypsin-EDTA, then diluted with the appropriate complete culture media and spun in a centrifuge at 300 g for 5 min. The supernatant was aspirated, and the pellet was re-suspended in serum-free RPMI 1640. The solution was centrifuged again, and the supernatant aspirated. Re-suspension, centrifugation, and aspiration was repeated once more. 5 mL of RPMI-1640 was then added to the pellet. 10 μL of the cell suspension was removed and mixed with 10 μL of Trypan blue stain 0.4% (ThermoFisher). Cells were counted with a Countess automated cell counter. Cell solutions were centrifuged one more time, the supernatant aspirated, and the pellet resuspended in the amount of RPMI-1640 required to achieve a concentration of 5×10^5 cells/200 μL of media. Tumor cells were then administered orthotopically in naive (and anesthetized) BALB/c mice into the right inguinal mammary fat pad 21 with 200 μL aliquots of the cell suspension, using an insulin syringe. Tumors were measured externally using a digital caliper, and volume was calculated (!″* (length * height) *−length * height). Except in the 4T1-luc2 trial, treatment began once tumors reached an average volume of 220-250 mm3. Experimental end point was deemed when solid tumors reached a volume of no more than 2000 mm3. Tumors were extracted and harvested, half stored in 4% paraformaldehyde diluted from 32% (Cat#50980495, Electron Microscopy Services) with DI H2O, and half frozen in liquid nitrogen, then stored at −80° C.
# Once tumors had reached an average volume of ˜220-250 mm^3, mice were administered either subcutaneously or intraperitoneally with 3 or 10 mg of crystalline sorafenib, diameter ˜150-200 μm, suspended in 200 μL of sterile saline using an 18 g needle. […]
# MDA-MB-231 = details: 30 mg/kg bodyweight daily oral, cited from earlier work
# 4T1 = details: 20-60 mg/kg dosing; cited from earlier work
# tumor endothelial CD31 = experiment: immunofluorescent staining of tumors: CD31; type: in vivo, BALB/c mice; details: daily bolus IP 25 mg/kg/day
# Description: (§1) To confirm the effects seen at the level of RNA, immunofluorescent staining of excised tumor samples that were in parallel fixed with paraformaldehyde and embedded in paraffin was performed. […] Co-localization of CD31 with aSMact was, as expected, not linked in crystal sorafenib-treated tumors, where CD31 reduction was more extensive than with daily, bolus sorafenib.
# (§2) Immunofluorescence imaging was used to determine anti-angiogenic drug efficacy. Tumor tissues were retrieved from mice and fixed overnight using 4% paraformaldehyde at 4° C. After fixation, retrieved tissue samples were moved to 70% ethanol. Samples were then processed for paraffin embedding, sectioning and staining. […] Next, tissues were incubated for 1 hour in an immunostaining cocktail solution consisting of NucBlue (Thermo), specific marker probes (1:200 dilution) anti-CD31 (Cat#DIA-310, HistoBioTec) and anti-alphaSmoothMuscle actin-Cy3 (Sigma) in Dako staining buffer. For CD31, a goat anti-rat alexa-fluor647 secondary antibody was also used (1:400). After staining, samples were rinsed again with 1X PBS three times prior to slides being cover slipped with Pro-long anti-fade Gold (Thermo). […] For stain quantification, images were converted into 8-bit image files, a background threshold was determined using NIH ImageJ, and then all images were processed using an NIH ImageJ macro to quantify the area of positive stain. […]
# [6] = tested on: macrophage Cd68 and myeloid Cd11b; experiment: qPCR of retrieved tumors: immune markers; type: in vivo, BALB/c mice; details: daily IP bolus 25 mg/kg BW/day
# [7] = tested on: alpha Smooth Muscle actin (aSMact); experiment: immunofluorescent staining of tumors: aSMact; type: in vivo, BALB/c mice; details: daily bolus IP 25 mg/kg/day
# Description: as §1, §2
# caspase-3/7 = experiment: Caspase-Glo 3/7 of tumor lysates; type: in vivo, BALB/c mice; details: daily bolus regimen; tumors at end of study
# Description: as §1
# Caspase activity was determined using the Caspase-Glo 3/7 assay kit and the manufacturer's protocol, with the following modifications. Protein samples (prepared by sonication probe in NP40 lysis buffer (Cat#FNN0021, Thermo)+Halt protease inhibitor cocktail (Cat#78425, Thermo)) were prepared in a 96-well plate following BCA assay (Cat#23225, Pierce/Thermo) protein quantification ([…] in 50 μl) were incubated with 50 μl of reconstituted caspase 3/7 substrate. After a brief shaking, the plate was incubated at room temperature for 1 hr and luciferase activity was determined using a BioTek Synergy 2 plate reader (Biotek; Winooski, VT).
compound,measurement,setting,value
COc1ccc(COc2ccc(Cc3cnc(N)nc3N)cc2OC)cc1 [GW2580],duration of suppression of foreign body and immune rejection responses,[1],over 1.3 years
same,duration of suppression of foreign body and immune rejection responses,[2],≥ 6 months
"CNC(=O)c1cc(Oc2ccc(NC(=O)Nc3ccc(Cl)c(C(F)(F)F)c3)cc2)ccn1 [amorphous (powder) sorafenib, sorafenib]",release of solubilized sorafenib (cumulative),[3],fastest release
"CO[C@H]1C[C@@H]2CC[C@@H](C)[C@@](O)(O2)C(=O)C(=O)N2CCCC[C@H]2C(=O)O[C@H]([C@H](C)C[C@@H]2CC[C@@H](O)[C@H](OC)C2)CC(=O)[C@H](C)/C=C(\C)[C@@H](O)[C@@H](OC)C(=O)[C@H](C)C[C@H](C)/C=C/C=C/C=C/1C [crystalline rapamycin, rapamycin]",inflammatory activity / biocompatibility,[4],no inflammatory activity
CNC(=O)c1cc(Oc2ccc(NC(=O)Nc3ccc(Cl)c(C(F)(F)F)c3)cc2)ccn1 [sorafenib],body weight loss,[5],15-20%
same,tumor volumes,4T1 tumors,slight dip in tumor volumes
same,tumor reduction,MDA-MB-231; after 9 days,42%
same,angiogenic inhibition,MDA-MB-231,significant angiogenic inhibition
same,effects on tumor growth,4T1,negligible effects
same,recruitment/polarization of CD206+ F4/80+ M2 macrophages,4T1,higher recruitment/polarization
same,tumor endothelial CD31 levels (immunofluorescence),tumor endothelial CD31,significant reduction
same,Cd68 and Cd11b expression levels (qPCR),[6],no significant changes
same,tumor aSMact levels (immunofluorescence),[7],significant reduction
same,apoptotic index (caspase-3/7 levels in tumor lysates),caspase-3/7,significantly increased
